The values that follow come from ChEMBL document CHEMBL1781925, “HCV-NS3/4A protease inhibitory iridoid glucosides and dimeric foliamenthoic acid derivatives from Anarrhinum orientale” (J Nat Prod, 2011).

The target of one test is Trypsin (Homo sapiens, UniProt P07477+P07478+P35030). Put plainly: Inhibition of human trypsin using hilyte fuor 488-labeled casein as substrate after 30 mins by green protease fluorometric assay. The format is protein assay.
The nature of test [1]: Inhibition of Hepatitis C virus NS3/4A protease using Ac-Asp-Glu-Dap (QXLTM520)-Glu-Glu-Abu-COO-Ala-Ser-Cys(5-FAMsp)-NH2 as substrate after 30 mins by fluorometric assay. On the set-up: species or system Hepacivirus hominis.

In general, IC50 refers to the concentration that inhibits the measured activity by half. For `C[C@]1(OC(=O)/C=C/c2ccccc2)CC[C@@H]2C(C(=O)O)=CO[C@@H](O[C@@H]3O[C@H](CO)[C@@H](O)[C@H](O)[C@H]3O)[C@@H]21`, the IC50 at Trypsin was more than 200 µM; in test [1], 109 µM. For `C[C@]1(O[C@@H]2O[C@H](COC(=O)/C=C/c3ccccc3)[C@@H](O)[C@H](O)[C@H]2O)CC[C@@H]2C(C(=O)O)=CO[C@@H](O[C@@H]3O[C@H](COC(=O)/C=C/c4ccccc4)[C@@H](O)[C@H](O)[C@H]3O)[C@@H]21` the same measures were more than 200 µM and 125 µM.

Regarding `C[C@]1(O)CC[C@@H]2C(C(=O)O)=CO[C@@H](O[C@@H]3O[C@H](COC(=O)/C=C/c4ccccc4)[C@@H](O)[C@H](O)[C@H]3O)[C@@H]21`, the IC50 was more than 200 µM on Trypsin and 100 µM in test [1]. The matching figures for `C/C(=C\CO)CC/C=C(\C)C(=O)OC/C=C(\C)CC/C=C(\C)C(=O)O`: more than 200 µM and 126 µM. For the compound `CC(=O)OC/C=C(\C)CC/C=C(\C)C(=O)OC/C=C(\C)CC/C=C(\C)C(=O)O`, the IC50 in test [1] was more than 200 µM.
